Experimental data taken from US20240158446A1, “CYCLIC COMPOUND HAVING SELECTIVE INHIBITORY ACTION ON KRAS OVER HRAS AND NRAS” (CHUGAI SEIYAKU KABUSHIKI KAISHA, priority 2021, published 2024).
Like-named read-outs stand apart in the source and are kept apart here. *1 amine or outer side, *2 acyl side, *3 side chain or, on linkers, in order; H or OH if unused. Where a SMILES comes first, the peptide text is derived from it. Bridges are numbered along the chain shown (N, C = ends). [ ]: non-standard residue; d: D form. The star is where a group is joined. hPhe(3,5-F2-4-CF3) = N[C@@H](CCc1cc(F)c(C(F)(F)F)c(F)c1)C(=O)O; X47 = CC(C)(C)CCN([C@@H](Cc1ccc(C(F)(F)F)cc1)C(=O)[*:2])[*:1]; hPhe(3-Cl-4-CF3) = N[C@@H](CCc1ccc(C(F)(F)F)c(Cl)c1)C(=O)O; X34 = Cc1ccc(C[C@@H](C(=O)[*:2])N(CCC(C)(C)C)[*:1])cc1; NPrPhe(4-CF3) = CCCN[C@@H](Cc1ccc(C(F)(F)F)cc1)C(=O)O; NMeGly(cPent) = CN[C@H](C(=O)O)C1CCCC1; Aze(3S-Me) = C[C@H]1CN[C@@H]1C(=O)O; Nva(3-Et) = CCC(CC)[C@H](N)C(=O)O; NMeD = CN[C@@H](CC(=O)O)C(=O)O; NMeL = CN[C@@H](CC(C)C)C(=O)O; αMeV = CC(C)[C@](C)(N)C(=O)O; Morpholide = C1CN(*)CCO1; NMeA = CN[C@@H](C)C(=O)O; Ac5c = NC1(C(=O)O)CCCC1; Aze = O=C(O)[C@@H]1CCN1; Sar = CNCC(=O)O

Columns and labels:
[1] = target: GDP-bound NRAS wild-type protein (Homo sapiens, UniProt P01111); assay: Binding to NRAS by surface plasmon resonance (SPR), Single Cycle Kinetics; settings: for NRAS/KRAS (ratio of KD value for NRAS to KD value for KRAS) / NRAS/KRAS (ratio of KD value with respect to NRAS to KD value with respect to KRAS): GDP-bound NRAS wild-type protein vs GDP-bound KRAS wild-type protein; for NRAS/KRAS (ratio of KD value with respect to GDP-bound NRAS wild-type protein to KD value with respect to KRAS): SPR KD ratio NRAS/KRAS, class symbols
[2] = target: GDP-bound HRAS wild-type protein (Homo sapiens, UniProt P01112); assay: Binding to HRAS by surface plasmon resonance (SPR), Single Cycle Kinetics; settings: for HRAS/KRAS (ratio of KD value for HRAS to KD value for KRAS) / HRAS/KRAS (ratio of KD value with respect to HRAS to KD value with respect to KRAS): GDP-bound HRAS wild-type protein vs GDP-bound KRAS wild-type protein; for HRAS/KRAS (ratio of KD value with respect to GDP-bound HRAS wild-type protein to KD value with respect to KRAS): SPR KD ratio HRAS/KRAS, class symbols
[3] = test system: human lung cancer strain NCI-H441;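 further: cell proliferation inhibition after four days measured by CellTiter-Glo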

Sequence of GDP-bound NRAS wild-type protein (P01111 whole entry): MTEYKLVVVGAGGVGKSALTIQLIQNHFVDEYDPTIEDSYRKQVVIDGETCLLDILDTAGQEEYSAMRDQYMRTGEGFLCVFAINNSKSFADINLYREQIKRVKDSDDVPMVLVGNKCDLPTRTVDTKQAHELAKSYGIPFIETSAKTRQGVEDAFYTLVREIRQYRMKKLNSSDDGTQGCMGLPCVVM
Sequence of GDP-bound HRAS wild-type protein (P01112 whole entry): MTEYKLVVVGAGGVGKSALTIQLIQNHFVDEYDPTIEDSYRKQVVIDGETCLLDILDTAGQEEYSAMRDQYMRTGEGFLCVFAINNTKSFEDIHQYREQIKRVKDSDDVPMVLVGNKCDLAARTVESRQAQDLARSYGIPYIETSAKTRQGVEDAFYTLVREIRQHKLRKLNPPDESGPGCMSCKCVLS

Row | SMILES | NRAS/KRAS (ratio of KD value for NRAS to KD value for KRAS) ([1]; SPR) | HRAS/KRAS (ratio of KD value for HRAS to KD value for KRAS) ([2]; SPR) | IC50 [3] [µM] | further results
1 | CC[C@H](C)[C@@H]1NC(=O)[C@H](CC(C)C)N(C)C(=O)C[C@@H](C(=O)N2CCOCC2)N(C)C(=O)[C@H](C2CCCC2)N(C)C(=O)C2(CCCC2)NC(=O)[C@@H]2CCCN2C(=O)[C@H](CCc2ccc(C(F)(F)F)c(Cl)c2)NC(=O)CN(C)C(=O)[C@H](Cc2ccc(C)cc2)N(CCC(C)(C)C)C(=O)[C@@H]2CCN2C(=O)[C@H](C)N(C)C1=O [PP0087] ([NMeL]I[NMeA][Aze][X34][Sar][hPhe(3-Cl-4-CF3)]P[Ac5c][NMeGly(cPent)][NMeD]-Morpholide; lactam N-11) | C (A compound having a KD ratio of 0.1 or more and less than 3 is denoted as C) | C (A compound having a KD ratio of 0.1 or more and less than 3 is denoted as C) | 0.024 | –
2 | CCO[C@@H]1C[C@H]2C(=O)NC(C)(C)C(=O)N(C)[C@@H](C3CCCC3)C(=O)N(CC)[C@H](C(=O)N3CCOCC3)CC(=O)N(C)[C@@H](CC(C)C)C(=O)N[C@@H]([C@@H](C)CC)C(=O)N(C)CC(=O)N(C)[C@H]3CCCCCN(C3=O)[C@@H](Cc3ccc(C(F)(F)F)cc3)C(=O)N(C)CC(=O)N[C@@H](CCc3cc(F)c(C(F)(F)F)c(F)c3)C(=O)N2C1 [PP0958] | B (a compound having 3 or more and less than 10 is denoted as B) | B (a compound having 3 or more and less than 10 is denoted as B) | 1.04 | –
3 | CCC[C@H]1C(=O)N[C@@H]([C@@H](C)CC)C(=O)N(C)CC(=O)N(C)[C@H]2C/C=C\CCN(C2=O)[C@@H](Cc2ccc(C(F)(F)F)cc2)C(=O)N(C)CC(=O)N[C@@H](CCc2cc(F)c(C(F)(F)F)c(F)c2)C(=O)N2C[C@H](OCC)C[C@H]2C(=O)NC2(CC(C)(C)C2)C(=O)N(C)[C@@H](CC(C)(C)C)C(=O)N(C)C(C(=O)N(C)C)CC(=O)N1C (some centres unmarked) [PP2730] | – | – | 0.0058 | NRAS/KRAS (ratio of KD value with respect to GDP-bound NRAS wild-type protein to KD value with respect to KRAS) [1]: A (a compound having 10 or more and less than 20 is denoted as A); HRAS/KRAS (ratio of KD value with respect to GDP-bound HRAS wild-type protein to KD value with respect to KRAS) [2]: A (a compound having 10 or more and less than 20 is denoted as A)
4 | CC[C@H](C)[C@@H]1NC(=O)[C@@H]2CCCc3ccc(cc3)C[C@@H](C(=O)N(C)CC(=O)N[C@@H](CCc3ccc(C(F)(F)F)c(OC)c3)C(=O)N3C[C@H](OC(C)C)C[C@H]3C(=O)NC3(CC(C)(C)C3)C(=O)N(C)[C@@H](C3CCCC3)C(=O)N(C)[C@H](C(=O)N(C)CC)CC(=O)N2C)N2CC/C=C\C[C@@H](C2=O)N(C)C(=O)CN(C)C1=O [PP3084] | A (a compound having 10 or more and less than 20 is denoted as A) | B (a compound having 3 or more and less than 10 is denoted as B) | – | ratio of the KD value with respect to GDP-bound NRAS wild-type protein to the KD value with respect to KRAS ([1]; SPR, KD(NRAS)/KD(KRAS)): A (a compound having 10 or more and less than 20 is denoted as A); ratio of the KD value with respect to GDP-bound HRAS wild-type protein to the KD value with respect to KRAS ([2]; SPR, KD(HRAS)/KD(KRAS)): B (a compound having 3 or more and less than 10 is denoted as B); IC50 ([3]; read-out: NCI-H441 cell proliferation inhibitory activity, 50% proliferation inhibitory concentration (IC50 value), NCI-H441, four days, CellTiter-Glo): 0.0037 µM
5 | CCCN1C(=O)CN(C)C(=O)[C@@H]2CCN2C(=O)[C@H]([C@@H](C)CC)NC(=O)[C@H](CC(C)C)N(C)C(=O)C[C@@H](C(=O)N2CCOCC2)N(C)C(=O)[C@H](C2CCCC2)N(C)C(=O)[C@](C)(C(C)C)NC(=O)[C@@H]2CCCN2C(=O)[C@H](CCc2cc(F)c(C(F)(F)F)c(F)c2)NC(=O)CN(C)C(=O)[C@@H]1Cc1ccc(C(F)(F)F)cc1 [PP0773] ([NMeL]I[Aze][Sar][NPrPhe(4-CF3)][Sar][hPhe(3,5-F2-4-CF3)]P[αMeV][NMeGly(cPent)][NMeD]-Morpholide; lactam N-11) | – | – | 0.17 | NRAS/KRAS (ratio of KD value with respect to NRAS to KD value with respect to KRAS) ([1]; SPR): B (a compound having 3 or more and less than 10 is denoted as B); HRAS/KRAS (ratio of KD value with respect to HRAS to KD value with respect to KRAS) ([2]; SPR): B (a compound having 3 or more and less than 10 is denoted as B)
6 | CCO[C@@H]1C[C@H]2C(=O)NC3(CCC3)C(=O)N(C)[C@@H](C3CCCC3)C(=O)N(C)[C@H](C(=O)N(C)C)CC(=O)N(C)[C@@H](CC3CCCC3)C(=O)N[C@@H]([C@@H](C)CC)C(=O)N(C)CC(=O)N(C)[C@H]3C/C=C\CCN(C3=O)[C@@H](Cc3ccc(C)cc3)C(=O)N(C)CC(=O)N[C@@H](CCc3ccc(C(F)(F)F)c(C4CC4)c3)C(=O)N2C1 [PP2681] | – | – | 0.0291 | NRAS/KRAS (ratio of KD value with respect to GDP-bound NRAS wild-type protein to KD value with respect to KRAS) [1]: A (a compound having 10 or more and less than 20 is denoted as A); HRAS/KRAS (ratio of KD value with respect to GDP-bound HRAS wild-type protein to KD value with respect to KRAS) [2]: A (a compound having 10 or more and less than 20 is denoted as A)
7 | CCC[C@H]1C(=O)N[C@@H]([C@@H](C)CC)C(=O)N(C)CC(=O)N(C)[C@H]2C/C=C\CCN(C2=O)[C@@H](Cc2ccc(C)cc2)C(=O)N(C)CC(=O)N[C@@H](CCc2ccc(C(F)(F)F)c(OC)c2)C(=O)N2CC3(CC3)C[C@H]2C(=O)NC2(CC(C)(C)C2)C(=O)N(C)[C@@H](CC(C)C)C(=O)N(C)[C@H](C(=O)N(C)C)CC(=O)N1C [PP3013] | AA (a compound having 20 or more is denoted as AA) | B (a compound having 3 or more and less than 10 is denoted as B) | 0.0297 | –
8 | CCCN1C(=O)CN(C)C(=O)[C@@H]2CCN2C(=O)[C@H](C(CC)CC)NC(=O)[C@H](CC(C)C)N(C)C(=O)C[C@@H](C(=O)N2CCOCC2)N(C)C(=O)[C@H](C2CCCC2)N(C)C(=O)C2(CCCC2)NC(=O)[C@@H]2CCCN2C(=O)[C@H](CCc2cc(F)c(C(F)(F)F)c(F)c2)NC(=O)CN(C)C(=O)[C@@H]1Cc1ccc(C(F)(F)F)cc1 [PP0785] ([NMeL][Nva(3-Et)][Aze][Sar][NPrPhe(4-CF3)][Sar][hPhe(3,5-F2-4-CF3)]P[Ac5c][NMeGly(cPent)][NMeD]-Morpholide; lactam N-11) | – | – | 0.324 | NRAS/KRAS (ratio of KD value with respect to NRAS to KD value with respect to KRAS) ([1]; SPR): B (a compound having 3 or more and less than 10 is denoted as B); HRAS/KRAS (ratio of KD value with respect to HRAS to KD value with respect to KRAS) ([2]; SPR): B (a compound having 3 or more and less than 10 is denoted as B)
9 | CC[C@H](C)[C@@H]1NC(=O)[C@H](CC(C)C)N(C)C(=O)C[C@@H](C(=O)N2CCOCC2)N(C)C(=O)[C@H](C2CCCC2)N(C)C(=O)C2(CCCC2)NC(=O)[C@@H]2CCCN2C(=O)[C@H](CCc2ccc(C(F)(F)F)c(Cl)c2)NC(=O)CN(C)C(=O)[C@H](Cc2ccc(Cl)cc2)N2CCCC[C@@H](C2=O)N(C)C(=O)CN(C)C1=O [PP0532] | – | – | 0.0069 | NRAS/KRAS (ratio of KD value with respect to NRAS to KD value with respect to KRAS) ([1]; SPR): C (A compound having a KD ratio of 0.1 or more and less than 3 is denoted as C); HRAS/KRAS (ratio of KD value with respect to HRAS to KD value with respect to KRAS) ([2]; SPR): B (a compound having 3 or more and less than 10 is denoted as B)
10 | CCCN1C(=O)CN(C)C(=O)[C@@H]2[C@@H](C)CN2C(=O)[C@H]([C@@H](C)CC)NC(=O)[C@H](CC(C)C)N(C)C(=O)C[C@@H](C(=O)N2CCOCC2)N(C)C(=O)[C@H](C2CCCC2)N(C)C(=O)C2(CCCC2)NC(=O)[C@@H]2CCCN2C(=O)[C@H](CCc2ccc(C(F)(F)F)c(Cl)c2)NC(=O)CN(C)C(=O)[C@@H]1Cc1ccc(C(F)(F)F)cc1 [PP0258] ([NMeL]I[Aze(3S-Me)][Sar][NPrPhe(4-CF3)][Sar][hPhe(3-Cl-4-CF3)]P[Ac5c][NMeGly(cPent)][NMeD]-Morpholide; lactam N-11) | B (a compound having 3 or more and less than 10 is denoted as B) | C (A compound having a KD ratio of 0.1 or more and less than 3 is denoted as C) | 0.0113 | –
11 | CC[C@H](C)[C@@H]1NC(=O)[C@H](CC(C)C)N(C)C(=O)C[C@@H](C(=O)N2CCOCC2)N(C)C(=O)[C@H](C2CCCC2)N(C)C(=O)C2(CCCC2)NC(=O)[C@@H]2CCCN2C(=O)[C@H](CCc2ccc(C(F)(F)F)c(Cl)c2)NC(=O)CN(C)C(=O)[C@H](Cc2ccc(C(F)(F)F)cc2)N(CCC(C)(C)C)C(=O)[C@@H]2CCN2C(=O)[C@H](C)N(C)C1=O [PP0113] ([NMeL]I[NMeA][Aze][X47][Sar][hPhe(3-Cl-4-CF3)]P[Ac5c][NMeGly(cPent)][NMeD]-Morpholide; lactam N-11) | C (A compound having a KD ratio of 0.1 or more and less than 3 is denoted as C) | B (a compound having 3 or more and less than 10 is denoted as B) | 0.0071 | –
12 | CCO[C@@H]1C[C@H]2C(=O)NC3(CC(C)(C)C3)C(=O)N(C)[C@@H](C3CCCC3)C(=O)N(C)[C@H](C(=O)N(C)C)CC(=O)N(C)[C@@H](CC(C)C)C(=O)N[C@@H]([C@@H](C)CC)C(=O)N(C)CC(=O)N(C)[C@H]3C/C=C\CCN(C3=O)[C@@H](Cc3ccc(C)c(F)c3)C(=O)N(C)CC(=O)N[C@@H](CCc3ccc(C(F)(F)F)c(OC)c3)C(=O)N2C1 [PP2689] | – | – | – | NRAS/KRAS (ratio of KD value with respect to GDP-bound NRAS wild-type protein to KD value with respect to KRAS) [1]: A (a compound having 10 or more and less than 20 is denoted as A); HRAS/KRAS (ratio of KD value with respect to GDP-bound HRAS wild-type protein to KD value with respect to KRAS) [2]: B (a compound having 3 or more and less than 10 is denoted as B); IC50 ([3]; read-out: NCI-H441 IC50, NCI-H441 cells, four days, CellTiter-Glo): 0.0062 µM
